Measurements published in publication PMC10375476, “Feedback Inhibition of Bacterial Nucleotidyltransferases by Rare Nucleotide L-Sugars Restricts Substrate Promiscuity” (Journal of the American Chemical Society, 2023).

Legend:
SALTY RmlA = SALTY RmlA (Salmonella enterica, UniProt P26393); assay: inhibition of reconstituted RmlA activity; assay type: biochemical
Mtb RmlA = Mtb RmlA (Mycobacterium tuberculosis, UniProt P9WH13); assay: biochemical
E. coli RmlA = E. coli RmlA (Escherichia coli, UniProt P37744); assay: inhibition of reconstituted RmlA activity; assay type: biochemical
Chain of E. coli RmlA (P37744 whole entry): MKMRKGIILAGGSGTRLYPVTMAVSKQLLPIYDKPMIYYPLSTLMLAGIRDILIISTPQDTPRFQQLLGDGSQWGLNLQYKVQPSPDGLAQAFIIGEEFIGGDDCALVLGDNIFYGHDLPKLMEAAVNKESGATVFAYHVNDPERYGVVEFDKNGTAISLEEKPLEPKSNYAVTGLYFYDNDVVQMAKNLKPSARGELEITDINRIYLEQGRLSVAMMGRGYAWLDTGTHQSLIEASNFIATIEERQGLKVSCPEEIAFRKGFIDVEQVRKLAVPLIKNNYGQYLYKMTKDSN

Pa RmlA = Pa RmlA (Pseudomonas aeruginosa, UniProt Q9HU22); assay: inhibition of reconstituted RmlA activity; assay type: biochemical
Chain of Pa RmlA (Q9HU22 1-293): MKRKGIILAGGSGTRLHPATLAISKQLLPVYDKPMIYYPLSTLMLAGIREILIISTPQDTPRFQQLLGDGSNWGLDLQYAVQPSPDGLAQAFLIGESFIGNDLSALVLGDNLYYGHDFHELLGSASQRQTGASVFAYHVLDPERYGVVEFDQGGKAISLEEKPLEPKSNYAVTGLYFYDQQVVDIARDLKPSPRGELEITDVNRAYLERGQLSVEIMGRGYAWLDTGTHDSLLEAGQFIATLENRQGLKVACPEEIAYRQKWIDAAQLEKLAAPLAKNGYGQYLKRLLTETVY

Chain of Mtb RmlA (P9WH13 whole entry): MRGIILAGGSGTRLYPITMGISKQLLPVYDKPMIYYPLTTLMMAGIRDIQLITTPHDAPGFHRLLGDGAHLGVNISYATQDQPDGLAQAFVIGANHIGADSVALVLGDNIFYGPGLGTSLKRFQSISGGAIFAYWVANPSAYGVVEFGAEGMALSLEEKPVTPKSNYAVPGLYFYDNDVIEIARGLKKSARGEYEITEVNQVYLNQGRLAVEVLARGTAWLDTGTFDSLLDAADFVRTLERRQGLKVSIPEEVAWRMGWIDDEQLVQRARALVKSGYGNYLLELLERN
Chain of SALTY RmlA (P26393 whole entry): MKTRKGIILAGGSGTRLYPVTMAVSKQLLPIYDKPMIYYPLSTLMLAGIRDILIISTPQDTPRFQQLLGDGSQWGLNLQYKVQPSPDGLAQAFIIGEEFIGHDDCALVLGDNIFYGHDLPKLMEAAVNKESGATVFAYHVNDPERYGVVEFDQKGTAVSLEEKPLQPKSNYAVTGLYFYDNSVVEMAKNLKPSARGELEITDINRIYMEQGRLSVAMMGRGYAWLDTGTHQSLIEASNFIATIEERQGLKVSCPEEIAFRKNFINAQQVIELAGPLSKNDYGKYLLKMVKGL

SMILES | IC50 (SALTY RmlA) [µM] | IC50 (Mtb RmlA) [µM] | IC50 (E. coli RmlA) [µM] | IC50 (Pa RmlA) [µM]
Cc1cn([C@H]2C[C@H](O)[C@@H](COP(=O)(O)OP(=O)(O)O[C@H]3O[C@@H](C)[C@H](O)[C@@H](O)[C@H]3O)O2)c(=O)[nH]c1=O [compound 1, dTDP-β-L-Rha] | 109 | 65.7 | 137 | 25.1
Cc1cn([C@H]2C[C@H](O)[C@@H](COP(=O)(O)OP(=O)(O)O[C@@H]3O[C@@H](C)[C@H](O)[C@@H](O)[C@H]3O)O2)c(=O)[nH]c1=O [compound 10, dTDP-α-L-Rha (α-anomer 10)] | > 500 | 500 | > 500 | 250
Cc1cn([C@H]2C[C@H](O)[C@@H](COP(=O)(O)OP(=O)(O)O[C@H]3O[C@@H](C)[C@@H](O)[C@@H](O)[C@H]3O)O2)c(=O)[nH]c1=O [compound 2, dTDP-β-L-6dTal] | – | – | – | 312
C[C@@H]1O[C@H](OP(=O)(O)OP(=O)(O)OC[C@H]2O[C@@H](n3ccc(=O)[nH]c3=O)[C@H](O)[C@@H]2O)[C@H](O)[C@H](O)[C@H]1O [compound 12, UDP-β-L-Rha] | – | – | – | 362
Cc1cn([C@H]2C[C@H](O)[C@@H](COP(=O)(O)OP(=O)(O)O[C@H]3O[C@@H](CO)[C@H](O)[C@@H](O)[C@H]3O)O2)c(=O)[nH]c1=O [compound 11, dTDP-β-L-Man] | > 500 | 458 | > 500 | 376
